Data taken from article PMC7075651 (Journal of Medicinal Chemistry, 2018).
Read-outs that look alike come from different tables or passages of the source. Where a SMILES comes first, the peptide text is derived from it. [ ]: non-standard residue; d: D form. The star is where a group is joined. Palmitoyl = CCCCCCCCCCCCCCCC(=O)*; βAla = NCCC(=O)O

Key:
IAV polymerase = experiment: cells; assay type: cell-based, influenza A virus; conditions: read-out: IC50, influenza replicon activity
[1] = biological target: neuraminidase from influenza A/Puerto Rico/8/1934 (H1N1) (Influenza A virus, UniProt P03468); assay type: biochemical
[2] = biological target: neuraminidase from influenza A/Hong Kong/8/68 (H3N2) (Influenza A virus, UniProt Q91MA2); assay type: biochemical
IAV = assay type: cell-based, influenza A virus
[3] = biological target: HA1 subunit sialic acid-binding site (Influenza A virus, UniProt P03452); parameters: species or system influenza A/Puerto Rico/8/34 virus
HA2 subunit = HA2 subunit (Influenza A virus, UniProt P03452); parameters: species or system H1/PR8 virus; conditions: pH 4.6
N66 = N66 (Influenza A virus, UniProt P03437); assay type: binding, IAV H3 (X31); conditions: pH 8.8
MERS-CoV pseudovirus = conditions: 12 h
TZM-b1 cell = conditions: human, TZM-b1 cells
in vivo = conditions: male, Sprague-Dawley, rat, iv, 5 mg/kg

Sequence of neuraminidase from influenza A/Hong Kong/8/68 (H3N2) (Q91MA2 whole entry, looked up): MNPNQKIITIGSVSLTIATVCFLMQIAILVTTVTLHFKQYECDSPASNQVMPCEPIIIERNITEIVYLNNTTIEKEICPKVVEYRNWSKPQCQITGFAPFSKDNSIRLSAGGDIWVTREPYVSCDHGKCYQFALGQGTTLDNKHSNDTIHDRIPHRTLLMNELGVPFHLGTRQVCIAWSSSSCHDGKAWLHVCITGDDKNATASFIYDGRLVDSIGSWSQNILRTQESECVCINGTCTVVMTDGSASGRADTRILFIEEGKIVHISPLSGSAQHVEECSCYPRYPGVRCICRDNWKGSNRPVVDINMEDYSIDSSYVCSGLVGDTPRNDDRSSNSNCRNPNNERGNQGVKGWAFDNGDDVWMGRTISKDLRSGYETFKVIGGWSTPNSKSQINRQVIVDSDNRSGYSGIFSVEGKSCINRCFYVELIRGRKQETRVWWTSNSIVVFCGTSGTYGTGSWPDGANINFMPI
Sequence of neuraminidase from influenza A/Puerto Rico/8/1934 (H1N1) (P03468 whole entry, looked up): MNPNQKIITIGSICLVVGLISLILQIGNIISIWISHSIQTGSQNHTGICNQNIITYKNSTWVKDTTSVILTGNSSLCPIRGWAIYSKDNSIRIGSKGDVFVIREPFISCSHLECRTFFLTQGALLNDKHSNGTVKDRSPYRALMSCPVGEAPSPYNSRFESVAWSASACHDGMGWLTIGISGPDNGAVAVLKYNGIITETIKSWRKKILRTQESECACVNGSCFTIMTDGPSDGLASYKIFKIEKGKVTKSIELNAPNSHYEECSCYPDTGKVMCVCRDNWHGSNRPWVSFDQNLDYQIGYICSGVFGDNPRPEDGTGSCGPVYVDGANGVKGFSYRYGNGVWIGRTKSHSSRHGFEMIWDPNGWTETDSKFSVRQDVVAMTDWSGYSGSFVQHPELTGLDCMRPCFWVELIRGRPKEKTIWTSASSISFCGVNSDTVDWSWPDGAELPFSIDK
Sequence of N66 (P03437 385-450 limits assumed): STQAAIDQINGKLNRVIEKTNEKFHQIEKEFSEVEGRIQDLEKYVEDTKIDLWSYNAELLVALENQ
Sequence of HA1 subunit sialic acid-binding site (P03452 18-343 limits assumed): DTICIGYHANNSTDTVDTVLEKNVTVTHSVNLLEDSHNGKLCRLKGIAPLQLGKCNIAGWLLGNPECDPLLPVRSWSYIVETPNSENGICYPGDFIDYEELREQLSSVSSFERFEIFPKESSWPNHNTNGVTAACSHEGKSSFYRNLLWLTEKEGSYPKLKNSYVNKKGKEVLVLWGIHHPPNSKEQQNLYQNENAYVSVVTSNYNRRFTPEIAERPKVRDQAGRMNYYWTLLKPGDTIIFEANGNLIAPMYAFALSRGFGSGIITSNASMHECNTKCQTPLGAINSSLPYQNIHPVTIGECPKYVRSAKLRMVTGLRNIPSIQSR
Sequence of HA1 subunit sialic acid-binding site (P03452 345-565 limits assumed): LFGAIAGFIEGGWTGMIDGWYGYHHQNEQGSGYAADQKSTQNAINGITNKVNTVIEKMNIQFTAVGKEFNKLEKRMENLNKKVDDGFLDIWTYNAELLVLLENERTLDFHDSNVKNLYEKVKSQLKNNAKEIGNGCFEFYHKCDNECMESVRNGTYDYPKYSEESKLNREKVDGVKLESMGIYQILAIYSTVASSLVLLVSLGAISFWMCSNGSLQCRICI
Sequence of HA2 subunit (P03452 18-343 limits assumed): as the sequence (P03452 18-343 limits assumed) above
Sequence of HA2 subunit (P03452 345-565 limits assumed): as the sequence (P03452 345-565 limits assumed) above

SMILES | IC50 (IAV polymerase) | inhibition of neuraminidase of A/Puerto Rico/8/34 (H1N1), in words [1] | inhibition of neuraminidase of A/Hong Kong/8/68 (H3N2), in words [2] | antiviral activity in the remaining three time intervals (IAV) | reduction of viral load, interval 0–10 h (IAV) | inhibition of influenza virus-induced aggregation of chicken erythrocytes [3] | lysis of erythrocytes caused by HA2 under acidic condition (HA2 subunit) | N-PAGE of equimolar mixture with N66 (N66) | EC50 (MERS-CoV pseudovirus) | CC50, cytotoxicity of compounds on MDCK cells (MDCK cells; dog, MDCK cells, 72 h) | CC50 on the TZM-b1 cell (TZM-b1 cell) | level at 24 h (in vivo) | antiviral effect at the interval of 5–8 h (IAV) | IC50 (IAV polymerase; Influenza A virus, HEK-293T, 30 h) | CC50, cytotoxicity of compounds on MDCK cells (MDCK cells)
CCCCCCCCCCCCCCCC(=O)NCCCC[C@H](NC(=O)CCNC(=O)[C@H](CCCCN)NC(=O)[C@H](CCCCN)NC(=O)[C@H](CCC(N)=O)NC(=O)[C@@H](NC(=O)[C@H](CCC(=O)O)NC(=O)[C@H](CCC(=O)O)NC(=O)[C@@H](NC(=O)[C@H](CCCCN)NC(=O)[C@H](CCCCN)NC(=O)[C@H](CCC(N)=O)NC(=O)[C@@H](NC(=O)[C@H](CCC(=O)O)NC(=O)[C@H](CCC(=O)O)NC(=O)[C@@H](NC(=O)[C@H](CCCCN)NC(=O)[C@H](CCCCN)NC(=O)[C@H](CCC(N)=O)NC(=O)[C@@H](NC(=O)[C@H](CCC(=O)O)NC(=O)[C@H](CCC(=O)O)NC(=O)[C@@H](NC(=O)[C@H](CCCCN)NC(=O)[C@H](CCCCN)NC(=O)[C@H](CCC(N)=O)NC(=O)[C@@H](NC(=O)[C@H](CCC(=O)O)NC(=O)[C@H](CCC(=O)O)NC(=O)[C@@H](NC(=O)[C@H](CCCCN)NC(=O)[C@H](CCCCN)NC(=O)[C@H](CCC(N)=O)NC(=O)[C@@H](NC(=O)[C@H](CCC(=O)O)NC(=O)[C@H](CCC(=O)O)NC(=O)[C@@H](NC(C)=O)[C@@H](C)CC)[C@@H](C)CC)[C@@H](C)CC)[C@@H](C)CC)[C@@H](C)CC)[C@@H](C)CC)[C@@H](C)CC)[C@@H](C)CC)[C@@H](C)CC)[C@@H](C)CC)C(N)=O [IIQ] (Ac-IEEIQKKIEEIQKKIEEIQKKIEEIQKKIEEIQKK[βAla]K(Palmitoyl)-NH2) | > 100 µM | neither IIQ nor favipiravir was able to disturb cleavage of the substrate | neither IIQ nor favipiravir was able to disturb cleavage of the substrate | no antiviral activity | approximately 60% | no apparent inhibition | decreased compared with the hemolytic effect of virus only | new bands at the upper positions in the gel | 0.13 µM | >100 µM | > 100 µM | > 100 ng/mL |  |  | 
NC(=O)c1nc(F)cnc1O [favipiravir, reference compound] |  | neither IIQ nor favipiravir was able to disturb cleavage of the substrate | neither IIQ nor favipiravir was able to disturb cleavage of the substrate |  |  |  |  |  |  |  |  |  | continued to exert its full effect |  | 
CCOC(=O)C1=C[C@@H](OC(CC)CC)[C@H](NC(C)=O)[C@@H](N)C1 [oseltamivir, reference compound] |  |  |  |  |  |  |  |  |  |  |  |  |  | > 100 µM | >100 µM
